Test results published in US20070072181A1 (priority 2003, published 2007).
Read-outs that look alike come from different tables or passages of the source.

System: VSV
Assay type: cell-based

Cc1ccc(=O)n(-c2ccccc2)c1 [PD, 5-methyl-1-phenyl-2-(1H)-pyridone]
Mean (Means for Oneway Anova; antiviral effect) (0.001 ng interferon + 3 μg pirfenidone (PD), HeLa, VSV): 0.6002
Mean (Means for Oneway Anova; antiviral effect) (0.001 ng interferon + 30 μg pirfenidone (PD), HeLa, VSV): 0.543
Mean (Means for Oneway Anova; antiviral effect) (0.001 ng interferon + 300 μg pirfenidone (PD), HeLa, VSV): 0.3705
Mean (Means for Oneway Anova; antiviral effect) (0.0049 ng interferon + 3 μg pirfenidone (PD), HeLa, VSV): 0.407
Mean (Means for Oneway Anova; antiviral effect) (0.0049 ng interferon + 30 μg pirfenidone (PD), HeLa, VSV): 0.3033
Mean (Means for Oneway Anova; antiviral effect) (0.0049 ng interferon + 300 μg pirfenidone (PD), HeLa, VSV): 0.1915
Mean (Means for Oneway Anova; antiviral effect) (0.019 ng interferon + 3 μg pirfenidone (PD), HeLa, VSV): 0.519
Mean (Means for Oneway Anova; antiviral effect) (0.019 ng interferon + 30 μg pirfenidone (PD), HeLa, VSV): 0.284
Mean (Means for Oneway Anova; antiviral effect) (0.019 ng interferon + 300 μg pirfenidone (PD), HeLa, VSV): 0.1785
Mean (Means for Oneway Anova; antiviral effect) (0.076 ng interferon + 3 μg pirfenidone (PD), HeLa, VSV): 0.68
Mean (Means for Oneway Anova; antiviral effect) (0.076 ng interferon + 30 μg pirfenidone (PD), HeLa, VSV): 0.4505
Mean (Means for Oneway Anova; antiviral effect) (0.076 ng interferon + 300 μg pirfenidone (PD), HeLa, VSV): 0.1938
Mean (Means for Oneway Anova; antiviral effect) (0.3 ng interferon + 3 μg pirfenidone (PD), HeLa, VSV): 0.5563
Mean (Means for Oneway Anova; antiviral effect) (0.3 ng interferon + 30 μg pirfenidone (PD), HeLa, VSV): 0.4298
Mean (Means for Oneway Anova; antiviral effect) (0.3 ng interferon + 300 μg pirfenidone (PD), HeLa, VSV): 0.1948
Mean (Means for Oneway Anova; antiviral effect) (1.2 ng interferon + 3 μg pirfenidone (PD), HeLa, VSV): 0.306
Mean (Means for Oneway Anova; antiviral effect) (1.2 ng interferon + 30 μg pirfenidone (PD), HeLa, VSV): 0.4248
Mean (Means for Oneway Anova; antiviral effect) (1.2 ng interferon + 300 μg pirfenidone (PD), HeLa, VSV): 0.1872
Mean (Means for Oneway Anova; antiviral effect) (4.8 ng interferon + 3 μg pirfenidone (PD), HeLa, VSV): 0.245
Mean (Means for Oneway Anova; antiviral effect) (4.8 ng interferon + 30 μg pirfenidone (PD), HeLa, VSV): 0.3757
Mean (Means for Oneway Anova; antiviral effect) (4.8 ng interferon + 300 μg pirfenidone (PD), HeLa, VSV): 0.325
Mean (Means for Oneway Anova; antiviral effect) (19 ng interferon + 3 μg pirfenidone (PD), HeLa, VSV): 0.979
Mean (Means for Oneway Anova; antiviral effect) (19 ng interferon + 30 μg pirfenidone (PD), HeLa, VSV): 0.2968
Mean (Means for Oneway Anova; antiviral effect) (19 ng interferon + 300 μg pirfenidone (PD), HeLa, VSV): 0.4105
effect on the antiviral effects of interferon (low doses of Pirfenidone with interferon, HeLa, VSV): enhance the antiviral effects of interferon
effect on viral growth in combination with IFN-α (low doses of pirfenidone in combination therapy with IFN-α): synergistic effect on reducing viral growth
